Here are results for 2 compounds from publication PMC9851200, “Multiparameter phenotypic screening for endogenous TFEB and TFE3 translocation identifies novel chemical series modulating lysosome function” (Autophagy, 2022).

Holding throughout (assay type): binding
Test [1] addresses kinases (KINOMEscan panel) (Homo sapiens, UniProt O96013). The settings on record: PAK4; NEW KINOMEscan.
Test [2] addresses kinases (KINOMEscan panel) (Homo sapiens, UniProt P0C1S8). The settings on record: WEE2; NEW KINOMEscan.
Test [3] has as its target kinases (KINOMEscan panel) (Homo sapiens, UniProt P19784). The settings on record: CSNK2A2; NEW KINOMEscan.
Test [4] deals with kinases (KINOMEscan panel) (Homo sapiens, UniProt P36888, D835Y). The settings on record: kinase FLT3(D835Y); NEW KINOMEscan.
The target of test [5] is T1, kinases (KINOMEscan panel) (Homo sapiens, UniProt Q13470).
T1 sequence (Q13470 1-666): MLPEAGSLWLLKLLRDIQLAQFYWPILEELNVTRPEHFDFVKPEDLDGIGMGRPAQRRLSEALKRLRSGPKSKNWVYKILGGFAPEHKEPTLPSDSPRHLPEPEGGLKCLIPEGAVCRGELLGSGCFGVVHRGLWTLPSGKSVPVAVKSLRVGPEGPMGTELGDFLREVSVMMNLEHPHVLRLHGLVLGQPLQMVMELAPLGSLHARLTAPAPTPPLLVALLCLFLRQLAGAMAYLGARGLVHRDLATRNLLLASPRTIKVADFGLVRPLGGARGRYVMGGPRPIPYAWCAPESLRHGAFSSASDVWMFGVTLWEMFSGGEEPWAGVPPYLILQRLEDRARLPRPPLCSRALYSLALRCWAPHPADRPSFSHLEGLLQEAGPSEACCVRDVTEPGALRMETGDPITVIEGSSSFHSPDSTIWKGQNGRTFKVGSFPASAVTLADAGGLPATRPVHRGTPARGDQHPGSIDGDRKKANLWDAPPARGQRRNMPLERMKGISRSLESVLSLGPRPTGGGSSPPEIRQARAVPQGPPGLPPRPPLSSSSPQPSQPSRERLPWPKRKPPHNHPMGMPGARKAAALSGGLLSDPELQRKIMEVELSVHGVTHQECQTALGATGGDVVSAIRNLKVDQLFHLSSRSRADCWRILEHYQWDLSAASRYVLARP
The settings on record: TNK1; NEW KINOMEscan.

Test [6] addresses T2, kinases (KINOMEscan panel) (Homo sapiens, UniProt Q9UPZ9).
T2 sequence (Q9UPZ9 1-632): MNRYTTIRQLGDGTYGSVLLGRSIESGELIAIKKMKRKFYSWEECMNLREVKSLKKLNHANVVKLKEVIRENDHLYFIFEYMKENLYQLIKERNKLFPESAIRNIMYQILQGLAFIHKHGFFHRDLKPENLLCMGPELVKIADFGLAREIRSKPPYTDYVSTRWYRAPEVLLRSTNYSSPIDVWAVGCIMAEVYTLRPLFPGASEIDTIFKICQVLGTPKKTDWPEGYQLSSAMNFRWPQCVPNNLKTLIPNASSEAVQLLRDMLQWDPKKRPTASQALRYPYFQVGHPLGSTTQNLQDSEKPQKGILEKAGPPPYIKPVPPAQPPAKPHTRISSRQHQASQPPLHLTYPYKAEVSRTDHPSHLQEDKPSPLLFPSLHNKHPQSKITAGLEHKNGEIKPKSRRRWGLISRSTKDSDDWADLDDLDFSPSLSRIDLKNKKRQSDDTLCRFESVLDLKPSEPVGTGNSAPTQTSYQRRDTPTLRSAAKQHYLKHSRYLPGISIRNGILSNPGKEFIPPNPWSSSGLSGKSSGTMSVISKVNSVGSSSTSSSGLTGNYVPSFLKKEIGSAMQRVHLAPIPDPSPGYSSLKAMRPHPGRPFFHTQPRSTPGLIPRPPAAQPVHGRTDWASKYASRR
The settings on record: CILK1; NEW KINOMEscan.

The target of test [7] is kinases (KINOMEscan panel) (Plasmodium falciparum, UniProt P61075). The settings on record: PFPK5(P.falciparum); NEW KINOMEscan.
kinases (KINOMEscan panel) (Plasmodium falciparum, UniProt P61075), sequence (P61075 whole entry): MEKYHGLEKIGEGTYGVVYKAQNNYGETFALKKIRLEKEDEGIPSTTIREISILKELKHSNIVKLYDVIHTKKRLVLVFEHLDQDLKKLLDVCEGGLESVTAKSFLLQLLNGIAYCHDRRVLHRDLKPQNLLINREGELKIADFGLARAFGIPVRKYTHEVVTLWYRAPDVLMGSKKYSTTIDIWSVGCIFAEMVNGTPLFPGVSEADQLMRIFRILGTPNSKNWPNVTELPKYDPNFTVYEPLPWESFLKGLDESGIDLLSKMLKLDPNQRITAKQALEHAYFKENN

Each structure is given as a SMILES string.

kinases (KINOMEscan panel) (Homo sapiens, UniProt P0C1S8), sequence (P0C1S8 whole entry): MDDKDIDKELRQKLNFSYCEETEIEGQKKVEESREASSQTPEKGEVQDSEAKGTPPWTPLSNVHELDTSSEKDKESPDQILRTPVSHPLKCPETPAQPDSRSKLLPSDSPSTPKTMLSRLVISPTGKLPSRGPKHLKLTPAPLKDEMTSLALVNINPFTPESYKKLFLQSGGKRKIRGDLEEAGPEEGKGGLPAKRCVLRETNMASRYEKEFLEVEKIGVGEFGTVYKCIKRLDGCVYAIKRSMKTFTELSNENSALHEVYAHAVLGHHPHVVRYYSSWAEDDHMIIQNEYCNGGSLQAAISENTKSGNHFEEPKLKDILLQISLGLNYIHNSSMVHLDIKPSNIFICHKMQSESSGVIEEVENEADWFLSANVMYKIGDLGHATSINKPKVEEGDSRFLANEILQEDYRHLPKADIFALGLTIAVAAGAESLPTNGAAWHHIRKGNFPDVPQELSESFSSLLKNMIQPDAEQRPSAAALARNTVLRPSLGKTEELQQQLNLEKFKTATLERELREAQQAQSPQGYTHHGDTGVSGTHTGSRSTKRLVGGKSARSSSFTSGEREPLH
kinases (KINOMEscan panel) (Homo sapiens, UniProt P19784), sequence (P19784 whole entry): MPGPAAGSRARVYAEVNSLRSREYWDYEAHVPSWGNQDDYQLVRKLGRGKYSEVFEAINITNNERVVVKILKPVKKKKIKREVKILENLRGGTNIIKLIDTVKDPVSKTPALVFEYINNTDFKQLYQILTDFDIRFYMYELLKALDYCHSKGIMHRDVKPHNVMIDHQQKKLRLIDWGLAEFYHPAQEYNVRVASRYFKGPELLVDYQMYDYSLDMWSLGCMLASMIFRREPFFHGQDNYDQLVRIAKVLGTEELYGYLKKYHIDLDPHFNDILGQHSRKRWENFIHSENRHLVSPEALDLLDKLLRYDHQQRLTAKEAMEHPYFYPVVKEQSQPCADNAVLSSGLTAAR
kinases (KINOMEscan panel) (Homo sapiens, UniProt O96013), sequence (O96013 whole entry): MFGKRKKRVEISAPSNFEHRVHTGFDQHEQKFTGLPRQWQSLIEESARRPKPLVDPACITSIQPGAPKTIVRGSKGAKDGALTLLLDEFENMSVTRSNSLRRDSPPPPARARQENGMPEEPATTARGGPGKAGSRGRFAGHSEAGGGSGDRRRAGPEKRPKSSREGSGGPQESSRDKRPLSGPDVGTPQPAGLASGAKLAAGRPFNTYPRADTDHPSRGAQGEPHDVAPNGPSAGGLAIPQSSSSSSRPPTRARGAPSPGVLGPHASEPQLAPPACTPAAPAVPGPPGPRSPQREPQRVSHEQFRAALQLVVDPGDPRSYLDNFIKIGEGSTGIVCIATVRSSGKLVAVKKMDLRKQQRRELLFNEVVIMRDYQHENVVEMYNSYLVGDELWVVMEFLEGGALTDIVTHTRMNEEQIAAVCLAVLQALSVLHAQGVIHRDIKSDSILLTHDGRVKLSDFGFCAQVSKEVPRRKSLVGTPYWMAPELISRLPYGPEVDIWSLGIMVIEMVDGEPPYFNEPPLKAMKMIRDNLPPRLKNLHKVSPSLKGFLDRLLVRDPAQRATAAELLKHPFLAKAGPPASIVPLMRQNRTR

On to `Cc1cccc(-c2nc(N(C)c3ccc4ncsc4c3)c3ccccc3n2)n1` [NK-161], for which the “KINOMEscan PAK4” value in test [1] came out at 0. The “KINOMEscan WEE2” value in test [2] is reported as 5. In test [3], the “KINOMEscan CSNK2A2” value is reported as 5. For the same compound, the “KINOMEscan FLT3(D835Y)” value in test [4] is 3. The “KINOMEscan TNK1” value in test [5] came out at 7. For the same compound, in test [6], the “KINOMEscan CILK1” value was 0. Also, the “KINOMEscan PFPK5(P.falciparum)” value in test [7] was determined as 0.

In the case of `Cc1cccc(-c2nc(Nc3ccc4nn(C)cc4c3)c3ccccc3n2)n1` [NK167], in test [1], the “KINOMEscan PAK4” value was 0. For the same compound, in test [2], the “KINOMEscan WEE2” value was found to be 0. Further, the “KINOMEscan CSNK2A2” value in test [3] is given as 0. For the same compound, the “KINOMEscan FLT3(D835Y)” value in test [4] is on record as 0. In addition, in test [5], the “KINOMEscan TNK1” value stood at 0. Further, the “KINOMEscan CILK1” value in test [6] amounted to 0. Moreover, in test [7], the “KINOMEscan PFPK5(P.falciparum)” value was 0.
